Source: patent US11517588B2, “Nanoparticle, preparation process and uses thereof” (National Tsing Hua University, priority 2019, dated 2022)

What was measured:
HCA-1 cells [1] = assay: Invasion and wound healing assays; assay type: cell-based, murine; settings: 72 h after treatment
Experimental: The procedure of transwell invasion assay was as follows. Cell invasion was examined using a QCM ECMatrix 24-well Cell Invasion Assay (EMD Millipore, USA). HCA-1 cells were seeded in the top chamber without serum. DMEM-H containing 10% FBS was added to the lower chamber. Following incubation for 72 h, the cells on the lower surface were fixed with 4% paraformaldehyde (PFA, in PBS). The chambers were rinsed in PBS and stained with 1% crystal violet (in 90% ethanol) for 30 min. For each experimental condition, 10 image fields were photographed by microscopy (IX83, Olympus, Japan) and quantified.
FIGS. 7A and 7B show free-form DNIC modulates the TME in metastatic lesions and suppresses metastatic progression of HCC. 7A-7B, Invasion (7A) and wound healing assays (7B) of HCA-1 cells were performed 72 h after treatment with free DNIC at different doses. The experiments were repeated twice independently.

[2] = pH 7.4
Experimental: Free DNIC and NanoNO were suspended with PBS buffer or acetic buffer (pH 4.0 or 5.5) and then incubated at 37° C. in a 200 rpm Orbital Shaker. At different time points, the solution was harvested, dissolved in DMSO and analysed by a UV spectrophotometer at 360 nm.
The kinetic profile for the decomposition of DNIC and the concomitant release of NO from NanoNO were evaluated under physiological and acidic pH conditions at 37° C. […] Free-form DNIC and NanoNO were incubated in a PBS buffer or acetic buffer at a pH of 4.0-7.4, and DNIC destruction was measured using a UV spectrophotometer at 360 nm (n=5 independent samples). The results are expressed as percentage of the initial DNIC. **P=0.0094 and ***P=0.0004 compared to NanoNO at a pH of 7.4.
Free-form DNIC and NanoNO were incubated in PBS containing 10% fetal bovine serum at 37° C. DNIC destruction was measured using a UV spectrophotometer at 360 nm. The results are expressed as the percentage of the initial DNIC (n=3 samples). All data are shown as the mean value± the s.e.m.

HCA-1 cells [3] = assay: EMT phenotype under hypoxic conditions, qRT-PCR; assay type: cell-based, murine; settings: hypoxic conditions (1% oxygen), 24 h, dose-dependent manner
Experimental: The mRNA level was determined by qRT-PCR 24 h after treatment with free DNIC at different doses (control and hypoxia, n=3; 0.5 and 1 μM DNIC, n=5; 5 μM DNIC, n=6 biologically independent samples).

[4] = Cumulative release of NO, DAR-1 fluorescence probe; assay type: physicochemical; settings: PBS pH 7.4, 37° C.
Experimental: The cumulative release of NO from NanoNO over time was assessed using an NO-specific 4,5-diamino-N,N,N′,N′-tetraethylrhodamine (DAR-1) fluorescence probe.
The release profile of NO from free DNIC or NanoNO was investigated at pH 7.4 at 37° C. Briefly, free DNIC and NanoNO were suspended with PBS buffer. DAR-1 at a final concentration of 20 μM was added to the solution and then incubated at 37° C. on a 200 rpm orbital shaker. At different time points, the solution was harvested, and the fluorescence intensity (excitation at 560 nm, emission at 595 nm) was measured using a microplate reader (Spark 10M, Tecan, Germany).
FIG. 3 is a data diagram of the effect of NanoNO on the cumulative release of nitric oxide. NO release from free-form DNIC and NanoNO under physiological conditions (pH of 7.4). Free-form DNIC and NanoNO were incubated in PBS buffer at pH 7.4, and the release of NO was measured as the fluorescence intensity (excitation at 560 nm and emission at 595 nm) of the NO-specific probe DAR-1. The results are expressed as a fold change compared to time 0 (free DNIC, n=5; NanoNO; n=4 independent samples). *P=0.0159 compared to free DNIC. FL: fluorescence intensity.

[5] = mouse, in vivo, iv
Experimental: The pharmacokinetics and biodistribution of NanoNO in orthotopic murine HCC models generated using HCA-1 were evaluated.
The procedure of pharmacokinetic and tissue distribution study was as follows. C3H/HeNCrNarl male mice with orthotopic implants of HCA-1 cells were injected intravenously with free DNIC (10 mg/kg) or NanoNO (7.5 mg/kg). At different time points, 200 μL of blood was collected from the orbital sinus and mixed with 50 μL of 1000 U/mL heparin (Sigma, USA). For evaluation of tissue distribution, four hours after administration, the mice were sacrificed. The tissues were collected and homogenized in lysis buffer (10 mM Tris-HCl, 1% Triton X-100, 0.1% SDS, 0.1% SDC and 140 mM NaCl). The tissue lysates were kept on ice for 30 min and centrifuged at 25,001 rcf at 4° C. for 30 min, and the supernatants were collected. The DNIC signal was measured by electron paramagnetic resonance (EPR plus, Bruker, Germany). HSCH2CH2OH (1 mM) was added to the serum or tissue lysates to transform all the DNICs into the EPR-active form for analysis. The DNIC concentration was calculated according to a standard curve obtained by the amounts of DNIC or NanoNO.
Non-compartmental analysis was employed for the pharmacokinetic parameter analysis. AUC, area under the curve; CL, clearance; h, hour; t1/2, half-life; Vss, steady state volume of distribution.

[6] = tested on: orthotopic HCA-1 HCC tumors; assay: Tissue distribution of DNIC and NO release in tumors; design: species or system C3H mice; settings: mouse, in vivo, iv
Experimental: ID/g, injected dose per gram. *P=0.0159 compared to Free DNIC. […] Next, NBD-labeled DNIC was used to track the intracellular delivery of free DNIC and NanoNO, and the NO-specific fluorescence probe DAR-1 was used to assess the penetration of NO released from free DNIC and NanoNO in HCC. In FIG. 4F, microphotographs of HCC tumors show DNIC uptake (green) and NO release (red) four hours after intravenous administration of NBD-DNIC loaded in NanoNO or free-form NBD-DNIC (7.5 mg/kg) to mice. 4',6-diamidino-2-phenylindole (DAPI, a fluorescent dye capable of binding strongly to DNA), blue. Scale bar, 50 μm. The experiments were repeated twice independently. […] NO release (red) was detected using DAR-1 in tumors four hours after intravenous administration of NanoNO or free-form DNIC (10 mg/kg) in mice. The arrowheads indicate perivascular NO gradients. Scale bar, 20 μm. The release of NO was imaged and quantified with a Zeiss LSM 780 confocal microscope (n=7 section images from four mice). The experiments were repeated twice independently. The procedure of distribution of NO in the tumor area was as follows. […] Four hours after administration, mice were sacrificed. Tumor tissues were embedded in Tissue-Tek (OCT compound) and immediately frozen in liquid nitrogen. Tumor tissue was sectioned (10 μm thick) onto slides. […]

SP1 = SP1 luciferase reporter; assay type: cell-based, murine; settings: free-form DNIC 0.5 μM, 24 h, HCA-1 cells
Experimental: The procedure of DNIC triggered activation of SP1 in HCA-1 HCC cells was as follows. HCA-1 cells expressing SP1 reporter (Qiagen, Germany) were established by transfection using Lipofectamine® 2000 (Thermo Fisher Scientific, USA). The cells were then treated with free-form DNIC. After 24 h incubated, the cells were lysed and luciferase signal was measured by microplate reader (Spark 10M, Tecan, Germany).
Data are pooled from two independent experiments. […] Analysis was performed using two-tailed Mann-Whitney U test.

Macrophage = Macrophage polarization after treatment of DNIC in vitro (qPCR); assay type: cell-based, human
Description: The murine hepatocellular carcinoma (HCC) cell line HCA-1 and the human HCC cell lines JHH-7, Hep3B and human lung fibroblasts (HLF) were provided by Dr. Dan Duda (Massachusetts General Hospital, Boston). The human HCC cell line Mahlavu was provided by Dr. Han-Chung Wu (Academia Sinica, Taiwan). The human monocyte cell line THP-1 (ATCC® TIB-202™) was purchased from ATCC. HUVECs (BCRC H-UV001) were obtained from the Bioresource Collection and Research Center, Food Industry Research and Development Institute (Hsinchu, Taiwan). Cell lines were authenticated and tested for mycoplasma. HCA-1 and Mahlavu cells were cultured in high-glucose Dulbecco's modified Eagle's medium (DMEM); JHH-7 and HLF cells were cultured in DMEM/F12 medium; Hep3B cells were cultured in Minimum Essential Medium Alpha (MEMα) (Sigma-Aldrich, St. Louis, Mo.); THP-1 cells were maintained in RPMI-1640 (Corning, N.Y.). All media were supplemented with 10% fetal bovine serum (FBS) and 1% antibiotics (penicillin and streptomycin, HyClone, Logan, Utah). The HUVECs were cultured in Medium 199 (Sigma-Aldrich, St. Louis, Mo.) containing 20% FBS, ECGS (30 μg/mL), heparin (25 U/mL) and L-glutamine (2 mM). THP-1 cells were differentiated into macrophages by 72 h incubation with 20 ng/mL phorbol 12-myristate 13-acetate (PMA, Sigma-Aldrich, St. Louis, Mo.).
(§1) The procedure of reverse transcription quantitative real time PCR was as follows. Total RNA was extracted from HUVECs or flow-sorted tumor-associated macrophages using the RNeasy Mini Kit (Qiagen, Calif., USA). cDNAs were synthesized using the High-Capicity cDNA Reverse Transcription Kit (Applied Biosystems, Calif., USA). Primers specific for Arignase-1, CCL17, CCL22, IL10, MRC1, CXCL9, IL-1β, TNF-α, CXCL-11, NOS2, NOS3, Snail, Slug, Zeb1, Zeb2, Trim28, Fibronectin, Vimentin, E-cadherin, PD-L1, S1PR1, ANGPT1, PDGF-B, VEGFA, ANGPT2, EGF, IL-6, PPARγ, TGFβ, GAPDH and β-actin were used (Table 2), and relative gene expression was determined using Real-Time SYBR Green PCR Master Mix (Applied Biosystems, Calif., USA) on a QPCR System. The comparative threshold cycle method was used to calculate fold change in gene expression, which was normalized to β-actin.

PD-L1 = PD-L1 mRNA and protein expression in HCC cells in vitro; assay type: cell-based, murine and human; settings: dose-dependent manner
Experimental: The procedure of Western blot analysis was as follows. Cells or tissue were lysed in RIPA lysis buffer. Cell lysates were separated on a 10% acrylamide gel and transferred to a PVDF membrane. Membranes were blocked for 1 h in 5% skim milk and then incubated overnight with polyclonal antibodies against PD-L1 and R-actin (clone 122M4782, Cell Signaling, Danvers, Mass.).
FIG. 6F is a data diagram showing reprogramming of tumor microenvironment by NanoNO. FIG. 6G is a Western blot staining diagram showing reprogramming of tumor microenvironment by NanoNO. PD-L1 mRNA and protein expression in HCA-1 cells was analysed by qRT-PCR (n=3 biologically independent samples) (FIG. 6F) and Western blot analysis (FIG. 6G) After treatment with free-form DNIC in vitro. The experiments were repeated twice independently.

HUVECs = assay: Expression of pro-angiogenic and vessel stabilizing factors, RT-qPCR; assay type: cell-based, human; settings: DNIC 1 μM, 24 h
Description: as §1
NO acts as a crucial modulator in regulating angiogenesis and maintaining the vasculature function in TME. […]
FIG. 5A is a data diagram of normalized tumor blood vessels in HCC by low-dose NanoNO. Expression of the pro-angiogenic and vessel stabilizing factors in HUVECs 24 h after treatment with DNIC (1 μM) measured by RT-qPCR. The results are expressed as the fold change relative to the untreated control group (n=9 biologically independent samples). […]

half-life of DNIC (DNIC destruction) [2]: 3.9 ± 1.5 h | CL [5]: 0.46 mL/min/kg | Vss [5]: 0.0327 L/kg | t1/2 [5]: 1.27 h | SP-1 luciferase activity (SP1): significantly decreased
Compound: O=[N][Fe]1([N]=O)[S](CCO)[Fe]([N]=O)([N]=O)[S]1CCO [Free DNIC, Fe(μ-SCH2CH2OH)2(NO)4]
migration and invasion of HCA-1 cells (HCA-1 cells [1]): significantly inhibited the migration and invasion | EMT markers and E-cadherin expression (HCA-1 cells [3]): prevented the increase in epithelial-mesenchymal transition (EMT) markers | in vitro release of NO [4]: proceeded at a rapid rate during the first two hours | accumulation of DNIC in HCC tumors [6]: poorly delivered and accumulated in the tumor | macrophage polarization in vitro (Macrophage): did not directly affect macrophage polarization | Gene expression Arg-1 (M2 type) (Macrophage; DNIC 0.5 μM): 1.08 ± 0.26 | Gene expression CCL-17 (M2 type) (Macrophage; DNIC 0.5 μM): 1.06 ± 0.13 | Gene expression CCL-22 (M2 type) (Macrophage; DNIC 0.5 μM): 0.96 ± 0.11 | Gene expression CXCL-9 (M1 type) (Macrophage; DNIC 0.5 μM): 1.22 ± 0.17 | Gene expression CXCL-11 (M1 type) (Macrophage; DNIC 0.5 μM): 2.02 ± 0.79 | Gene expression IL-1b (M1 type) (Macrophage; DNIC 0.5 μM): 1.13 ± 0.07 | Gene expression IL-6 (M1 type) (Macrophage; DNIC 0.5 μM): 1.16 ± 0.03 | Gene expression MRC1 (M2 type) (Macrophage; DNIC 0.5 μM): 1.00 ± 0.17 | Gene expression PPARγ (M2 type) (Macrophage; DNIC 0.5 μM): 0.92 ± 0.05 | Gene expression TGF-β (M2 type) (Macrophage; DNIC 0.5 μM): 1.11 ± 0.06 | Gene expression TNF-α (M1 type) (Macrophage; DNIC 0.5 μM): 0.95 ± 0.08 | Gene expression iNOS (M1 type) (Macrophage; DNIC 0.5 μM): 1.10 ± 0.35 | Gene expression Arg-1 (M2 type) (Macrophage; DNIC 1 μM): 1.27 ± 0.28 | Gene expression CCL-17 (M2 type) (Macrophage; DNIC 1 μM): 1.19 ± 0.27 | Gene expression CCL-22 (M2 type) (Macrophage; DNIC 1 μM): 1.07 ± 0.22 | Gene expression CXCL-9 (M1 type) (Macrophage; DNIC 1 μM): 1.22 ± 0.53 | Gene expression CXCL-11 (M1 type) (Macrophage; DNIC 1 μM): 1.85 ± 0.72 | Gene expression IL-1b (M1 type) (Macrophage; DNIC 1 μM): 1.21 ± 0.04 | Gene expression IL-6 (M1 type) (Macrophage; DNIC 1 μM): 1.27 ± 0.08 | Gene expression IL-10 (M2 type) (Macrophage; DNIC 1 μM): 1.22 ± 0.14 | Gene expression MRC1 (M2 type) (Macrophage; DNIC 1 μM): 1.19 ± 0.16 | Gene expression PPARγ (M2 type) (Macrophage; DNIC 1 μM): 0.91 ± 0.13 | Gene expression TGF-β (M2 type) (Macrophage; DNIC 1 μM): 0.95 ± 0.03 | Gene expression TNF-α (M1 type) (Macrophage; DNIC 1 μM): 0.94 ± 0.11 | Gene expression iNOS (M1 type) (Macrophage; DNIC 1 μM): 0.93 ± 0.47 | PD-L1 expression in murine and human HCC cells in vitro (PD-L1): significantly reduced PD-L1 expression | expression of pro-angiogenic genes (VEGF, ANGPT2, and EGF) (HUVECs): downregulated | expression of vessel maturation-related genes (S1PR1 and ANGPT1) (HUVECs): significantly upregulated
